Experimental data published in ChEMBL document CHEMBL3632495, “Discovery of 1,1'-Biphenyl-4-sulfonamides as a New Class of Potent and Selective Carbonic Anhydrase XIV Inhibitors” (J Med Chem, 2015).

What follows are compounds tested against Carbonic anhydrase 9 (Homo sapiens, UniProt Q16790).
Description: Inhibition of human carbonic anhydrase-9 assessed as CO2 hydration activity by stopped-flow method

Q: `NS(=O)(=O)c1ccc(-c2ccc(Cc3ccc([N+](=O)[O-])cc3)cc2)cc1` was tested. Which Ki did it give?
A: 705 nM

Q: For `NS(=O)(=O)c1ccc(-c2ccc(C(O)c3ccccc3)cc2)cc1` (stereo unspecified), which Ki is on record?
A: 8.9 nM

Q: How did the Ki turn out when `NS(=O)(=O)c1ccc(-c2ccc(Cc3ccc(C(=O)O)cc3)cc2)cc1` was run?
A: 31.4 nM

Q: `NS(=O)(=O)c1ccc(-c2ccc([N+](=O)[O-])cc2)cc1` was tested. Which Ki did it give?
A: 9.6 nM

Q: For `Nc1ccc(Cc2ccc(-c3ccc(S(N)(=O)=O)cc3)cc2)cc1`, which Ki is on record?
A: 6 nM

Q: For `COC(=O)c1ccc(-c2ccc(S(N)(=O)=O)cc2)cc1`, which Ki is on record?
A: 9.3 nM

Q: `NS(=O)(=O)c1ccc(-c2ccc(C(O)c3ccc([N+](=O)[O-])cc3)cc2)cc1` (stereo unspecified) was tested. Which Ki did it give?
A: 678 nM

Q: For `COC(=O)c1ccc(Cc2ccc(-c3ccc(S(N)(=O)=O)cc3)cc2)cc1`, which Ki is on record?
A: 76.7 nM

Q: `NS(=O)(=O)c1ccc(-c2ccc(C(O)c3ccc(C(=O)O)cc3)cc2)cc1` (stereo unspecified) was tested. Which Ki did it give?
A: 450 nM

Q: With `COC(=O)c1ccc(C(=O)c2ccc(-c3ccc(S(N)(=O)=O)cc3)cc2)cc1` as the compound, how does the Ki read?
A: 42.3 nM

Q: Which Ki does the source give for `NS(=O)(=O)c1ccc(-c2ccc(C(=O)O)cc2)cc1` here?
A: 3.6 nM

Q: With `NC(=O)c1ccc(-c2ccc(S(N)(=O)=O)cc2)cc1` as the compound, how does the Ki read?
A: 823 nM

Q: How did the Ki turn out when `NS(=O)(=O)c1ccc(-c2ccc(C(=O)c3ccc(C(=O)O)cc3)cc2)cc1` was run?
A: 8.5 nM

Q: How did the Ki turn out when `NS(=O)(=O)c1ccc(-c2ccc(Cc3ccccc3)cc2)cc1` was run?
A: 519 nM

What follows are compounds tested against Carbonic anhydrase 1 (Homo sapiens, UniProt P00915).
Carbonic anhydrase 1, sequence (P00915 whole entry): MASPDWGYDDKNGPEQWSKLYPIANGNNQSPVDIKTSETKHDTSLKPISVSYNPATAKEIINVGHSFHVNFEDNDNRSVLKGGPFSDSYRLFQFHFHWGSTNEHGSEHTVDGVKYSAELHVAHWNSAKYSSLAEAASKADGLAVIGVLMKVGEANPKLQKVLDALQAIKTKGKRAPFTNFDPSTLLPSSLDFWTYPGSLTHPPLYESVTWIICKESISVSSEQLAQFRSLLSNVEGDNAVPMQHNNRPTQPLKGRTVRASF
Description: Inhibition of human carbonic anhydrase-1 assessed as CO2 hydration activity by stopped-flow method

Q: With `NS(=O)(=O)c1ccc(-c2ccc(Cc3ccc([N+](=O)[O-])cc3)cc2)cc1` as the compound, how does the Ki read?
A: 70.5 nM

Q: `NS(=O)(=O)c1ccc(-c2ccc(C(O)c3ccccc3)cc2)cc1` (stereo unspecified) was tested. Which Ki did it give?
A: 52.7 nM

Q: Which Ki does the source give for `Nc1ccc(-c2ccc(S(N)(=O)=O)cc2)cc1` here?
A: 78.5 nM

Q: With `NS(=O)(=O)c1ccc(-c2ccc(Cc3ccc(C(=O)O)cc3)cc2)cc1` as the compound, how does the Ki read?
A: 236 nM

Q: With `NS(=O)(=O)c1ccc(-c2ccc(C(=O)c3ccccc3)cc2)cc1` as the compound, how does the Ki read?
A: 1630 nM

Q: Which Ki does the source give for `NS(=O)(=O)c1ccc(-c2ccc([N+](=O)[O-])cc2)cc1` here?
A: 62.2 nM

Q: Which Ki does the source give for `Nc1ccc(Cc2ccc(-c3ccc(S(N)(=O)=O)cc3)cc2)cc1` here?
A: 589 nM

Q: Which Ki does the source give for `CC(C)(C)OC(=O)c1ccc(-c2ccc(S(N)(=O)=O)cc2)cc1` here?
A: 78.8 nM

Q: `COC(=O)c1ccc(-c2ccc(S(N)(=O)=O)cc2)cc1` was tested. Which Ki did it give?
A: 77 nM

Q: For `NS(=O)(=O)c1ccc(-c2ccc(C(=O)c3ccc([N+](=O)[O-])cc3)cc2)cc1`, which Ki is on record?
A: 80.1 nM

Q: `COC(=O)c1ccc(Cc2ccc(-c3ccc(S(N)(=O)=O)cc3)cc2)cc1` was tested. Which Ki did it give?
A: 122 nM

Q: `NS(=O)(=O)c1ccc(-c2ccc(C(O)c3ccc(C(=O)O)cc3)cc2)cc1` (stereo unspecified) was tested. Which Ki did it give?
A: 72.5 nM

Q: With `COC(=O)c1ccc(C(=O)c2ccc(-c3ccc(S(N)(=O)=O)cc3)cc2)cc1` as the compound, how does the Ki read?
A: 73.8 nM

Q: For `NS(=O)(=O)c1ccc(-c2ccc(C(=O)O)cc2)cc1`, which Ki is on record?
A: 340 nM

Q: For `NS(=O)(=O)c1ccc(-c2ccc(C(=O)NCCO)cc2)cc1`, which Ki is on record?
A: 46.7 nM

Q: With `COC(=O)c1ccc(C(O)c2ccc(-c3ccc(S(N)(=O)=O)cc3)cc2)cc1` (stereo unspecified) as the compound, how does the Ki read?
A: 6.3 nM

Q: How did the Ki turn out when `NC(=O)c1ccc(-c2ccc(S(N)(=O)=O)cc2)cc1` was run?
A: 67.5 nM

Q: Which Ki does the source give for `NS(=O)(=O)c1ccc(-c2ccc(C(=O)c3ccc(C(=O)O)cc3)cc2)cc1` here?
A: 263 nM

Q: Which Ki does the source give for `NS(=O)(=O)c1ccc(-c2ccc(Cc3ccccc3)cc2)cc1` here?
A: 75.3 nM

The compounds below were run against Carbonic anhydrase 2 (Homo sapiens, UniProt P00918).
Description: Inhibition of human carbonic anhydrase-2 assessed as CO2 hydration activity by stopped-flow method

Q: `NS(=O)(=O)c1ccc(-c2ccc(Cc3ccc([N+](=O)[O-])cc3)cc2)cc1` was tested. Which Ki did it give?
A: 39.7 nM

Q: How did the Ki turn out when `NS(=O)(=O)c1ccc(-c2ccc(C(O)c3ccccc3)cc2)cc1` (stereo unspecified) was run?
A: 4.9 nM

Q: How did the Ki turn out when `Nc1ccc(-c2ccc(S(N)(=O)=O)cc2)cc1` was run?
A: 9.1 nM

Q: How did the Ki turn out when `NS(=O)(=O)c1ccc(-c2ccc(Cc3ccc(C(=O)O)cc3)cc2)cc1` was run?
A: 6.9 nM

Q: Which Ki does the source give for `NS(=O)(=O)c1ccc(-c2ccc(C(=O)c3ccccc3)cc2)cc1` here?
A: 4.3 nM

Q: `NS(=O)(=O)c1ccc(-c2ccc([N+](=O)[O-])cc2)cc1` was tested. Which Ki did it give?
A: 11.6 nM

Q: Which Ki does the source give for `Nc1ccc(Cc2ccc(-c3ccc(S(N)(=O)=O)cc3)cc2)cc1` here?
A: 5.2 nM

Q: How did the Ki turn out when `CC(C)(C)OC(=O)c1ccc(-c2ccc(S(N)(=O)=O)cc2)cc1` was run?
A: 42 nM

Q: Which Ki does the source give for `COC(=O)c1ccc(-c2ccc(S(N)(=O)=O)cc2)cc1` here?
A: 9 nM

Q: How did the Ki turn out when `NS(=O)(=O)c1ccc(-c2ccc(C(O)c3ccc([N+](=O)[O-])cc3)cc2)cc1` (stereo unspecified) was run?
A: 5.9 nM

Q: With `NS(=O)(=O)c1ccc(-c2ccc(C(=O)c3ccc([N+](=O)[O-])cc3)cc2)cc1` as the compound, how does the Ki read?
A: 63.3 nM

Q: Which Ki does the source give for `COC(=O)c1ccc(Cc2ccc(-c3ccc(S(N)(=O)=O)cc3)cc2)cc1` here?
A: 50.6 nM

Q: For `NS(=O)(=O)c1ccc(-c2ccc(C(O)c3ccc(C(=O)O)cc3)cc2)cc1` (stereo unspecified), which Ki is on record?
A: 814 nM

Q: How did the Ki turn out when `COC(=O)c1ccc(C(=O)c2ccc(-c3ccc(S(N)(=O)=O)cc3)cc2)cc1` was run?
A: 7.8 nM

Q: `NS(=O)(=O)c1ccc(-c2ccc(C(=O)O)cc2)cc1` was tested. Which Ki did it give?
A: 6.2 nM

Q: How did the Ki turn out when `NS(=O)(=O)c1ccc(-c2ccc(C(=O)NCCO)cc2)cc1` was run?
A: 11.5 nM

Q: How did the Ki turn out when `COC(=O)c1ccc(C(O)c2ccc(-c3ccc(S(N)(=O)=O)cc3)cc2)cc1` (stereo unspecified) was run?
A: 6.6 nM

Q: With `NC(=O)c1ccc(-c2ccc(S(N)(=O)=O)cc2)cc1` as the compound, how does the Ki read?
A: 5.3 nM

Q: How did the Ki turn out when `NS(=O)(=O)c1ccc(-c2ccc(C(=O)c3ccc(C(=O)O)cc3)cc2)cc1` was run?
A: 4.8 nM

Q: For `NS(=O)(=O)c1ccc(-c2ccc(Cc3ccccc3)cc2)cc1`, which Ki is on record?
A: 454 nM

What follows are compounds tested against Carbonic anhydrase 12 (Homo sapiens, UniProt O43570).
Carbonic anhydrase 12, sequence (O43570 whole entry): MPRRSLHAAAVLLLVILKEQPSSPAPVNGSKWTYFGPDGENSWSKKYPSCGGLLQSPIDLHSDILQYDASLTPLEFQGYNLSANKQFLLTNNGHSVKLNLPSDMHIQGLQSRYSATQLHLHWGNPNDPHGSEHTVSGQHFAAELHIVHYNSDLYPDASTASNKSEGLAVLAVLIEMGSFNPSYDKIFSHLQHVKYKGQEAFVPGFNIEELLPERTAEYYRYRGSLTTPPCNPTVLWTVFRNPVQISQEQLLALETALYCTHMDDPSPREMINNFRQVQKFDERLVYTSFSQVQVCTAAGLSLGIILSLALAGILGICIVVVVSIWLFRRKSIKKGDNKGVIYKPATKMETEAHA
Description: Inhibition of human carbonic anhydrase-12 assessed as CO2 hydration activity by stopped-flow method

Q: For `NS(=O)(=O)c1ccc(-c2ccc(Cc3ccc([N+](=O)[O-])cc3)cc2)cc1`, which Ki is on record?
A: 9.3 nM

Q: How did the Ki turn out when `NS(=O)(=O)c1ccc(-c2ccc(C(O)c3ccccc3)cc2)cc1` (stereo unspecified) was run?
A: 81.1 nM

Q: Which Ki does the source give for `Nc1ccc(-c2ccc(S(N)(=O)=O)cc2)cc1` here?
A: 7.7 nM

Q: How did the Ki turn out when `NS(=O)(=O)c1ccc(-c2ccc(C(=O)c3ccccc3)cc2)cc1` was run?
A: 7.4 nM

Q: For `NS(=O)(=O)c1ccc(-c2ccc([N+](=O)[O-])cc2)cc1`, which Ki is on record?
A: 7.4 nM

Q: `Nc1ccc(Cc2ccc(-c3ccc(S(N)(=O)=O)cc3)cc2)cc1` was tested. Which Ki did it give?
A: 8.1 nM

Q: Which Ki does the source give for `CC(C)(C)OC(=O)c1ccc(-c2ccc(S(N)(=O)=O)cc2)cc1` here?
A: 44.9 nM

Q: With `COC(=O)c1ccc(-c2ccc(S(N)(=O)=O)cc2)cc1` as the compound, how does the Ki read?
A: 35.2 nM

Q: With `NS(=O)(=O)c1ccc(-c2ccc(C(=O)c3ccc([N+](=O)[O-])cc3)cc2)cc1` as the compound, how does the Ki read?
A: 70.6 nM

Q: For `COC(=O)c1ccc(Cc2ccc(-c3ccc(S(N)(=O)=O)cc3)cc2)cc1`, which Ki is on record?
A: 237 nM

Q: With `NS(=O)(=O)c1ccc(-c2ccc(C(O)c3ccc(C(=O)O)cc3)cc2)cc1` (stereo unspecified) as the compound, how does the Ki read?
A: 93.9 nM

Q: For `COC(=O)c1ccc(C(=O)c2ccc(-c3ccc(S(N)(=O)=O)cc3)cc2)cc1`, which Ki is on record?
A: 7.3 nM

Q: For `NS(=O)(=O)c1ccc(-c2ccc(C(=O)O)cc2)cc1`, which Ki is on record?
A: 52.3 nM

Q: Which Ki does the source give for `NS(=O)(=O)c1ccc(-c2ccc(C(=O)NCCO)cc2)cc1` here?
A: 26.2 nM

Q: For `COC(=O)c1ccc(C(O)c2ccc(-c3ccc(S(N)(=O)=O)cc3)cc2)cc1` (stereo unspecified), which Ki is on record?
A: 6.7 nM

Q: With `NC(=O)c1ccc(-c2ccc(S(N)(=O)=O)cc2)cc1` as the compound, how does the Ki read?
A: 8.3 nM

Q: `NS(=O)(=O)c1ccc(-c2ccc(C(=O)c3ccc(C(=O)O)cc3)cc2)cc1` was tested. Which Ki did it give?
A: 45.5 nM

Q: `NS(=O)(=O)c1ccc(-c2ccc(Cc3ccccc3)cc2)cc1` was tested. Which Ki did it give?
A: 77.2 nM
